Results on 20 compounds are retold here after ChEMBL document CHEMBL5500346, “Targeting EGFR degradation by autophagosome degraders” (Eur J Med Chem, 2024).

Usually IC50 stands for the concentration needed to halve the response being measured. Low values mean greater potency, high ones weaker potency. As a reminder, the DC50 is the concentration giving 50% degradation.

The subject of series [1] is PC-9. Nature of the series: In vivo ATTEC activity at LC3B/EGFR in human PC-9 cells implanted in NOD-SCID mouse assessed as protein degradation at 20 mg/kg, ip measured after 24 hrs by Western blot analysis. The class given is functional, organism-based.
The subject of series [2] is A549. Nature of the series: Antiproliferative activity against human A549 cells incubated for 72 hrs by CCK8 assay. The class given is functional, cell-based. The following applies: A549, 72 h.
In series [3] the test system is HCC827. In words: Antiproliferative activity against human HCC827 cells incubated for 72 hrs by CCK8 assay. The class given is functional, cell-based. The following applies: HCC827, 72 h. A general note: Tetrazolium assays rely on reduction of a dye to a coloured formazan, in cell work by metabolically active cells.
Series [4] has as its system PC-9. In words: Antiproliferative activity against human PC-9 cells incubated for 72 hrs by CCK8 assay. Format: functional, cell-based. The following applies: PC-9, 72 h.
The subject of series [5] is NCI-H3255. Nature of the series: Antiproliferative activity against human NCI-H3255 cells incubated for 72 hrs by CCK8 assay. The settings on record: NCI-H3255, 72 h. Format: functional, cell-based.
Series [6] relates to NCI-H1975. In words: Antiproliferative activity against human NCI-H1975 cells incubated for 72 hrs by CCK8 assay. The following applies: NCI-H1975, 72 h. The class given is functional, cell-based.
Series [7] deals with L02. Nature of the series: Antiproliferative activity against human HL7702 cells incubated for 72 hrs by CCK8 assay. The class given is toxicity, cell-based. The settings on record: l02, 72 h.
Series [8] has as its target T1, Microtubule-associated protein 1 light chain 3 beta/Epidermal growth factor receptor (Homo sapiens, UniProt P00533+Q9GZQ8). Nature of the series: ATTEC activity at LC3B/EGFR in human HCC827 cells assessed as protein degradation by immunoblot analysis. The class given is cell-based. (In general: A western blot detects proteins with antibodies after separation by electrophoresis.)

Series [9] has as its target T1, Microtubule-associated protein 1 light chain 3 beta/Epidermal growth factor receptor. In words: ATTEC activity at LC3B/EGFR in human HCC827 cells assessed as protein degradation at 0.33 uM by immunoblot analysis relative to control. Format: cell-based.
Series [10] deals with PC-9. Nature of the series: Antiproliferative activity against Gefitinib-resistant human PC-9 cells incubated for 72 hrs by CCK8 assay. Format: functional, cell-based.
Series [11] has as its target T1, Microtubule-associated protein 1 light chain 3 beta/Epidermal growth factor receptor. Nature of the series: ATTEC activity at LC3B/EGFR in human HCC827 cells assessed as protein degradation at 3.3 uM by immunoblot analysis relative to control. Format: cell-based.
The target is the same in series [12]. In words: ATTEC activity at LC3B/EGFR in human HCC827 cells assessed as protein degradation at 0.11 uM by immunoblot analysis relative to control. The class given is cell-based.

Active and inactive are the calls of the source.

Regarding `COc1cc2ncnc(Nc3ccc(F)c(Cl)c3)c2cc1OCCCN1CCOCC1`, in series [1], the result was inactive.

For the compound `COc1cc2ncnc(Nc3ccc(F)c(Cl)c3)c2cc1OCCOCCOCCOCCNC(=O)COc1c(Br)cc(/C=C2\C(=O)Nc3ccc(Cl)cc32)cc1Br`, the IC50 in series [2] was over 10 µM; in [3] it was over 10 µM; in [4] it was 7.72 µM; in series [5], 4.85 µM; in series [6], over 10 µM. Besides, the Activity result in series [7] was “Non-Toxic”. For the same compound, the DC50 in series [8] is over 10 µM. Moreover, the Emax in series [9] turned out to be 9.1%.

With `COc1cc2ncnc(Nc3ccc(F)c(Cl)c3)c2cc1OCCOCCOCCOCCNC(=O)COc1c(Br)cc(/C=C2\C(=O)Nc3ccccc32)cc1Br`, the IC50 was over 10 µM in series [2]; 1.72 µM in series [3]; 1.09 µM in [4]; 1.43 µM in [5]; over 10 µM in series [6]. Also, in series [7], the Activity result is “Non-Toxic”. For the same compound, the result in series [10] was Active. Further, the DC50 in series [8] is over 10 µM. The Emax in series [11] came to 26%.

`COc1cc2ncnc(Nc3ccc(F)c(Cl)c3)c2cc1OCCOCCOCCNC(=O)COc1c(Br)cc(/C=C2\C(=O)Nc3ccc(C)cc32)cc1Br`: the IC50 in series [2] was over 10 µM; in [3], 0.862 µM; in series [4], 1.36 µM; in series [5], 1.83 µM; in series [6] it was over 10 µM. Also, the Activity result in series [7] is recorded as “Non-Toxic”. The outcome in series [10] was Active. Besides, the DC50 in series [8] is over 10 µM.

Regarding `COc1cc2ncnc(Nc3ccc(F)c(Cl)c3)c2cc1OCCOCCOCCNC(=O)COc1c(Br)cc(/C=C2\C(=O)Nc3ccc(Cl)cc32)cc1Br`, the IC50 is over 10 µM in series [2]; 6.03 µM in series [3]; 3.81 µM in [4]; 2 µM in series [5]; over 10 µM in series [6]. For the same compound, the Activity result in series [7] was “Non-Toxic”. Besides, in series [10], the outcome was Active. In series [8], the DC50 is 8.49 µM.

With `COc1cc2ncnc(Nc3ccc(F)c(Cl)c3)c2cc1OCCOCCOCCOCCNC(=O)COc1c(Br)cc(/C=C2\C(=O)Nc3ccc(C)cc32)cc1Br`, the IC50 in [2] is over 10 µM; in series [3], 0.937 µM; in [4] it was 3.78 µM; in [5], 1.13 µM; in series [6], over 10 µM. The Activity entry in series [7] is given as “Non-Toxic”. Further, in [10], the outcome was Active. The DC50 in series [8] was over 10 µM.

On to `COc1cc2ncnc(Nc3ccc(F)c(Cl)c3)c2cc1OCCCCNC(=O)COc1c(Br)cc(/C=C2\C(=O)Nc3ccc(I)cc32)cc1Br`, for which the IC50 in series [2] was over 10 µM; in [3], 0.21 µM; in series [4], over 10 µM; in series [5] it was 6.04 µM; in series [6], over 10 µM. The Activity entry in series [7] is recorded as “Non-Toxic”. For the same compound, the DC50 in series [8] is over 10 µM. Moreover, in [11], the Emax worked out at 5.8%.

With `COc1cc2ncnc(Nc3ccc(F)c(Cl)c3)c2cc1OCCOCCOCCOCCNC(=O)COc1c(Br)cc(/C=C2\C(=O)Nc3ccc(Br)cc32)cc1Br`, the half-inhibitory concentration (IC50) in series [2] was over 10 µM; in series [3] it was 3.84 µM; in series [4], 5.12 µM; in series [5], 2.54 µM; in series [6], over 10 µM. In addition, in [7], the Activity entry is “Non-Toxic”. Besides, in series [10], the result was Active. Further, the DC50 in series [8] worked out at 2.77 µM.

As for `COc1cc2ncnc(Nc3ccc(F)c(Cl)c3)c2cc1OCCOCCOCCNC(=O)COc1c(Br)cc(/C=C2\C(=O)Nc3ccc(I)cc32)cc1Br`, the IC50 was over 10 µM in [2]; 2.78 µM in series [3]; 11.1 µM in [4]; 4.79 µM in [5]; over 10 µM in [6]. For the same compound, in series [7], the Activity entry is listed as “Non-Toxic”. For the same compound, the DC50 in series [8] amounted to 3.62 µM.

Turning to `COc1cc2ncnc(Nc3ccc(F)c(Cl)c3)c2cc1OCCOCCOCCOCCOCCNC(=O)COc1c(Br)cc(/C=C2\C(=O)Nc3ccc(I)cc32)cc1Br`, the IC50 in series [2] is over 10 µM; in series [3] it was 1.15 µM; in series [4] it was 6.76 µM; in series [5] it was 4.14 µM; in series [6] it was over 10 µM. The Activity entry in [7] is listed as “Non-Toxic”. The DC50 in [8] came out at 5.81 µM.

Consider `COc1cc2ncnc(Nc3ccc(F)c(Cl)c3)c2cc1OCCCCCCNC(=O)COc1c(Br)cc(/C=C2\C(=O)Nc3ccc(I)cc32)cc1Br`, for which the IC50 in series [2], in [3], in [4], in [5] and in series [6] was over 10 µM throughout. For the same compound, the Activity result in series [7] was “Non-Toxic”. Also, the DC50 in [8] was over 10 µM.

Turning to `COc1cc2ncnc(Nc3ccc(F)c(Cl)c3)c2cc1OCCOCCOCCNC(=O)COc1c(Br)cc(/C=C2\C(=O)Nc3ccccc32)cc1Br`, the IC50 in series [2] is over 10 µM; in series [3], 1.15 µM; in series [4], 1.43 µM; in series [5] it was 0.908 µM; in series [6] it was 3.18 µM. The Activity result in series [7] was “Non-Toxic”. Further, the outcome in series [10] was Active. Moreover, the DC50 in [8] is over 10 µM.

In the case of `COc1cc2ncnc(Nc3ccc(F)c(Cl)c3)c2cc1OCCOCCOCCOCCNC(=O)C(C)Oc1c(Br)cc(/C=C2\C(=O)Nc3ccc(I)cc32)cc1Br` (stereo not given), the IC50 was over 10 µM in series [2]; 0.923 µM in series [3]; 7.04 µM in series [4]; 3.41 µM in series [5]; over 10 µM in series [6]. For the same compound, the Activity result in series [7] is reported as “Non-Toxic”. Moreover, the outcome in [10] was Active. For the same compound, in series [8], the DC50 came to 6.42 µM.

Turning to `COc1cc2ncnc(Nc3ccc(F)c(Cl)c3)c2cc1OCCOCCNC(=O)COc1c(Br)cc(/C=C2\C(=O)Nc3ccc(C)cc32)cc1Br`, the IC50 is over 10 µM in [2]; 1.72 µM in [3]; 3.53 µM in series [4]; 2.46 µM in [5]; over 10 µM in series [6]. The Activity entry in [7] is recorded as “Non-Toxic”. In series [10], the result was Active. Besides, the DC50 in series [8] is over 10 µM.

`COc1cc2ncnc(Nc3ccc(F)c(Cl)c3)c2cc1OCCOCCOCCNC(=O)COc1c(Br)cc(/C=C2\C(=O)Nc3ccc(Br)cc32)cc1Br`: the IC50 was over 10 µM in [2]; 1.06 µM in series [3]; 3.12 µM in [4]; 2.84 µM in series [5]; over 10 µM in series [6]. The Activity entry in series [7] is given as “Non-Toxic”. For the same compound, the result in series [10] was Active. Besides, the DC50 in [8] is over 10 µM.

Take `COc1cc2ncnc(Nc3ccc(F)c(Cl)c3)c2cc1OCCCCCCCCCCNC(=O)COc1c(Br)cc(/C=C2\C(=O)Nc3ccc(I)cc32)cc1Br`: the IC50 is over 10 µM in [2]; 0.976 µM in [3]; over 10 µM in series [4]; 4.93 µM in series [5]; over 10 µM in series [6]. For the same compound, the Activity result in series [7] is given as “Non-Toxic”. Moreover, in series [8], the DC50 was over 10 µM.

With `COc1cc2ncnc(Nc3ccc(F)c(Cl)c3)c2cc1OCCCCCCCCNC(=O)COc1c(Br)cc(/C=C2\C(=O)Nc3ccc(I)cc32)cc1Br`, the concentration for half-maximal inhibition (IC50) in series [2] was over 10 µM; in series [3], 2.19 µM; in series [4], over 10 µM; in series [5] it was 6.5 µM; in series [6], over 10 µM. Further, in [7], the Activity result is reported as “Non-Toxic”. The DC50 in [8] was over 10 µM. The Emax in [12] came to 9.1%.

For the compound `COc1cc2ncnc(Nc3ccc(F)c(Cl)c3)c2cc1OCCOCCNC(=O)COc1c(Br)cc(/C=C2\C(=O)Nc3ccc(I)cc32)cc1Br`, the IC50 in series [2] was over 10 µM; in series [3] it was 1.28 µM; in series [4], 7.96 µM; in series [5], 3.1 µM; in series [6], over 10 µM. For the same compound, the Activity result in series [7] was “Non-Toxic”. Moreover, the DC50 in [8] was over 10 µM. Besides, the Emax in [9] was determined as 20.2%.

With `COc1cc2ncnc(Nc3ccc(F)c(Cl)c3)c2cc1OCCOCCNC(=O)COc1c(Br)cc(/C=C2\C(=O)Nc3ccc(Br)cc32)cc1Br`, the IC50 is over 10 µM in [2]; over 10 µM in series [3]; over 10 µM in series [4]; 5.18 µM in [5]; over 10 µM in series [6]. Also, the Activity entry in series [7] is listed as “Non-Toxic”. The result in [10] was Active. In addition, the 50% degradation concentration (DC50) in series [8] was over 10 µM.

Consider `COc1cc2ncnc(Nc3ccc(F)c(Cl)c3)c2cc1OCCOCCNC(=O)COc1c(Br)cc(/C=C2\C(=O)Nc3ccc(Cl)cc32)cc1Br`, for which the IC50 in series [2] is over 10 µM; in [3], 5.87 µM; in [4], over 10 µM; in series [5], 4.58 µM; in series [6], over 10 µM. The Activity result in [7] is listed as “Non-Toxic”. In series [10], the result was Active. Moreover, the DC50 in [8] was 0.94 µM.
